Structures are written as SMILES.

This data set is described as follows: Plasma pharmacokinetics of the parent compound after a single oral dose of prodrug. Format: in vivo. To be noted: single oral dose 10 mg/kg, fasted male Sprague Dawley rats; plasma analyzed for the parent compound; study duration 8 h. The gist of the method: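 Three male Sprague Dawley rats, housed in metabolic cages and fasted about 15 hours, were weighed and received one oral gavage dose of 10 mg/kg as a solution in water or water/propylene glycol. Blood (approximately 500 μL) went into heparin tubes at set timepoints up to the study duration. Plasma was separated by centrifugation at 14,000 rpm for 3 min at 4° C, stored below −70° C, and assayed for the parent compound.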
As for `C=Cc1cc(C(=O)Nc2ccc(C(=N)NC(=O)OC[C@@H]3C[C@@H](O)CC(=O)O3)cc2)c(-c2ccc(C(=O)NCC3CC3)nc2C(=O)OC(C)OC(=O)C(C)C)cc1OC` (stereo partly drawn) [Compound 73d, 1-(isobutyryloxy)ethyl 6-((cyclopropylmethyl)carbamoyl)-3-(2-((4-(N-((((2S,4R)-4-hydroxy-6-oxotetrahydro-2H-pyran-2-yl)methoxy)carbonyl)carbamimidoyl)phenyl)carbamoyl)-5-methoxy-4-vinylphenyl)picolinate], the “AUC0-last hour (area under the curve)” value is on record as “A (A = 0-1,000 ng/mL)”.

Take `C=Cc1cc(C(=O)Nc2ccc(C(=N)NC(=O)OCOC(=O)[C@@H](N)C(C)C)cc2)c(-c2ccc(C(=O)NCC3CC3)nc2C(=O)OCOC(=O)[C@@H](N)C(C)C)cc1OC` [Compound 74e, (((S)-2-amino-3-methylbutanoyl)oxy)methyl 3-(2-((4-(N—(((((S)-2-amino-3-methylbutanoyl)oxy)methoxy)carbonyl)carbamimidoyl)phenyl)carbamoyl)-5-methoxy-4-vinylphenyl)-6-((cyclopropylmethyl)carbamoyl)picolinate]: the “AUC0-last hour (area under the curve)” value is listed as “B (B = 1,001-10,000 ng/mL)”.

In the case of `C=Cc1cc(C(=O)Nc2ccc(C(=N)NC(=O)OCCN3CCOCC3)cc2)c(-c2ccc(C(=O)NCC3CC3)nc2C(=O)OC(C)OC(=O)C(C)C)cc1OC` (stereo not shown) [Compound 75c, 1-(isobutyryloxy)ethyl 6-((cyclopropylmethyl)carbamoyl)-3-(5-methoxy-2-((4-(N-((2-morpholinoethoxy)carbonyl)carbamimidoyl)phenyl)carbamoyl)-4-vinylphenyl)picolinate], the “AUC0-last hour (area under the curve)” value was “B (B = 1,001-10,000 ng/mL)”.

As for `C=Cc1cc(C(=O)Nc2ccc(C(=N)NC(=O)OCC3COC(C)(C)O3)cc2)c(-c2ccc(C(=O)NCC3CC3)nc2C(=O)OC(C)OC(=O)OC(C)C)cc1OC` (stereo not shown) [Compound 77c, 1-((isopropoxycarbonyl)oxy)ethyl 6-((cyclopropylmethyl)carbamoyl)-3-(2-((4-(N-(((2,2-dimethyl-1,3-dioxolan-4-yl)methoxy)carbonyl)carbamimidoyl)phenyl)carbamoyl)-5-methoxy-4-vinylphenyl)picolinate], the “AUC0-last hour (area under the curve)” value is reported as “B (B = 1,001-10,000 ng/mL)”.

As for `C=Cc1cc(C(=O)Nc2ccc(C(=N)NC(=O)OCCOCC)cc2)c(-c2ccc(C(=O)NCC3CC3)nc2C(=O)OC(C)OC(=O)C(C)C)cc1OC` (stereo not shown) [Compound 80c, 1-(isobutyryloxy)ethyl 6-((cyclopropylmethyl)carbamoyl)-3-(2-((4-(N-((2-ethoxyethoxy)carbonyl)carbamimidoyl)phenyl)carbamoyl)-5-methoxy-4-vinylphenyl)picolinate], the “AUC0-last hour (area under the curve)” value is listed as “C (C >10,000 ng/mL)”.

Regarding `C=Cc1cc(C(=O)Nc2ccc(C(=N)NC(=O)OCCCCCC)cc2)c(-c2ccc(C(=O)NCC3CC3)nc2C(=O)OC(C)OC(=O)NC(C)C)cc1OC` (stereo not shown) [Compound 81d, 1-((isopropylcarbamoyl)oxy)ethyl 6-((cyclopropylmethyl)carbamoyl)-3-(2-((4-(N-((hexyloxy)carbonyl)carbamimidoyl)phenyl)carbamoyl)-5-methoxy-4-vinylphenyl)picolinate], the “AUC0-last hour (area under the curve)” value was “A (A = 0-1,000 ng/mL)”.

As for `C=Cc1cc(C(=O)Nc2ccc(C(=N)NC(=O)OCCOCCC)cc2)c(-c2ccc(C(=O)NCC3CC3)nc2C(=O)OC(C)OC(=O)OC(C)C)cc1OC` (stereo not shown) [Compound 83c, 1-((isopropoxycarbonyl)oxy)ethyl 6-((cyclopropylmethyl)carbamoyl)-3-(5-methoxy-2-((4-(N-((2-propoxyethoxy)carbonyl)carbamimidoyl)phenyl)carbamoyl)-4-vinylphenyl)picolinate], the “AUC0-last hour (area under the curve)” value is “B (B = 1,001-10,000 ng/mL)”.

Take `C=Cc1cc(C(=O)Nc2ccc(C(=N)NC(=O)OCC(O)CO)cc2)c(-c2ccc(C(=O)NCC3CC3)nc2C(=O)OC(C)OC(=O)OC(C)C)cc1OC` (stereo not shown) [Compound 84a, 1-((isopropoxycarbonyl)oxy)ethyl 6-((cyclopropylmethyl)carbamoyl)-3-(2-((4-(N-((2,3-dihydroxypropoxy)carbonyl)carbamimidoyl)phenyl)carbamoyl)-5-methoxy-4-vinylphenyl)picolinate]: the “AUC0-last hour (area under the curve)” value was “A (A = 0-1,000 ng/mL)”.

As for `C=Cc1cc(C(=O)Nc2ccc(C(=N)NC(=O)OCCO)cc2)c(-c2ccc(C(=O)NCC3CC3)nc2C(=O)OC(C)OC(=O)C(C)C)cc1OC` (stereo not shown) [Compound 85d, 1-(isobutyryloxy)ethyl 6-((cyclopropylmethyl)carbamoyl)-3-(2-((4-(N-((2-hydroxyethoxy)carbonyl)carbamimidoyl)phenyl)carbamoyl)-5-methoxy-4-vinylphenyl)picolinate], the “AUC0-last hour (area under the curve)” value is “A (A = 0-1,000 ng/mL)”.

With `C=Cc1cc(C(=O)Nc2ccc(C(=N)NC(=O)OCCCCCC)cc2)c(-c2ccc(C(=O)NCC3CC3)nc2C(=O)OC(C)OC(=O)OCC2COC(C)(C)O2)cc1OC` (stereo not shown) [Compound 87a, 1-((((2,2-dimethyl-1,3-dioxolan-4-yl)methoxy)carbonyl)oxy)ethyl 6-((cyclopropylmethyl)carbamoyl)-3-(2-((4-(N-((hexyloxy)carbonyl)carbamimidoyl)phenyl)carbamoyl)-5-methoxy-4-vinylphenyl)picolinate], the “AUC0-last hour (area under the curve)” value is on record as “B (B = 1,001-10,000 ng/mL)”.

On to `C=Cc1cc(C(=O)Nc2ccc(C(=N)NC(=O)OCCCCCC)cc2)c(-c2ccc(C(=O)NCC3CC3)nc2C(=O)OC(C)OC(=O)N(C)C)cc1OC` (stereo not shown) [Compound 90d, 1-((dimethylcarbamoyl)oxy)ethyl 6-((cyclopropylmethyl)carbamoyl)-3-(2-((4-(N-((hexyloxy)carbonyl)carbamimidoyl)phenyl)carbamoyl)-5-methoxy-4-vinylphenyl)picolinate], for which the “AUC0-last hour (area under the curve)” value is reported as “A (A = 0-1,000 ng/mL)”.

For `C=Cc1cc(C(=O)Nc2ccc(C(=N)NC(=O)OCCCCCC)cc2)c(-c2ccc(C(=O)NCC3CC3)nc2C(=O)OC(C)OC(=O)N[C@H](C(=O)OCC)[C@@H](C)CC)cc1OC` (stereo partly drawn) [Compound 91d, 1-((((2S,3S)-1-ethoxy-3-methyl-1-oxopentan-2-yl)carbamoyl)oxy)ethyl 6-((cyclopropylmethyl)carbamoyl)-3-(2-((4-(N-((hexyloxy)carbonyl)carbamimidoyl)phenyl)carbamoyl)-5-methoxy-4-vinylphenyl)picolinate], the “AUC0-last hour (area under the curve)” value was “A (A = 0-1,000 ng/mL)”.

Consider `C=Cc1cc(C(=O)Nc2ccc(C(=N)NC(=O)OCCC[C@H](O)C(=O)O)cc2)c(-c2ccc(C(=O)NCC3CC3)nc2C(=O)OC(C)OC(=O)C(C)C)cc1OC` (stereo partly drawn) [Compound 92a, (2S)-5-((((4-(2-(6-((cyclopropylmethyl)carbamoyl)-2-((1-(isobutyryloxy)ethoxy)carbonyl)pyridin-3-yl)-4-methoxy-5-vinylbenzamido)phenyl)(imino)methyl)carbamoyl)oxy)-2-hydroxypentanoic acid], for which the “AUC0-last hour (area under the curve)” value is given as “A (A = 0-1,000 ng/mL)”.

For the compound `C=Cc1cc(C(=O)Nc2ccc(C(=N)NC(=O)OCCCCCO)cc2)c(-c2ccc(C(=O)NCC3CC3)nc2C(=O)OC(C)OC(=O)C(C)C)cc1OC` (stereo not shown) [Compound 94e, 1-(isobutyryloxy)ethyl 6-((cyclopropylmethyl)carbamoyl)-3-(2-((4-(N-(((5-hydroxypentyl)oxy)carbonyl)carbamimidoyl)phenyl)carbamoyl)-5-methoxy-4-vinylphenyl)picolinate], the “AUC0-last hour (area under the curve)” value is given as “B (B = 1,001-10,000 ng/mL)”.

With `C=Cc1cc(C(=O)Nc2ccc(C(=N)NC(=O)OC(C)CO)cc2)c(-c2ccc(C(=O)NCC3CC3)nc2C(=O)OC(C)OC(=O)OC(C)C)cc1OC` (stereo not shown) [Compound 95e, 1-((isopropoxycarbonyl)oxy)ethyl 6-((cyclopropylmethyl)carbamoyl)-3-(2-((4-(N-(((1-hydroxypropan-2-yl)oxy)carbonyl)carbamimidoyl)phenyl)carbamoyl)-5-methoxy-4-vinylphenyl)picolinate], the “AUC0-last hour (area under the curve)” value is “B (B = 1,001-10,000 ng/mL)”.

As for `C=Cc1cc(C(=O)Nc2ccc(C(=N)NC(=O)OCCN3CCOCC3)cc2)c(-c2ccc(C(=O)NCC3CC3)nc2C(=O)OC(C)OC(=O)[C@@H](N)C(C)C)cc1OC` (stereo partly drawn) [Compound 96d, 1-(((S)-2-amino-3-methylbutanoyl)oxy)ethyl 6-((cyclopropylmethyl)carbamoyl)-3-(5-methoxy-2-((4-(N-((2-morpholinoethoxy)carbonyl)carbamimidoyl)phenyl)carbamoyl)-4-vinylphenyl)picolinate], the “AUC0-last hour (area under the curve)” value was “A (A = 0-1,000 ng/mL)”.

Consider `C=Cc1cc(C(=O)Nc2ccc(C(=N)NC(=O)OC(C)CN)cc2)c(-c2ccc(C(=O)NCC3CC3)nc2C(=O)OC(C)OC(=O)OC(C)C)cc1OC` (stereo not shown) [Compound 97e, 1-((isopropoxycarbonyl)oxy)ethyl 3-(2-((4-(N-(((1-aminopropan-2-yl)oxy)carbonyl)carbamimidoyl)phenyl)carbamoyl)-5-methoxy-4-vinylphenyl)-6-((cyclopropylmethyl)carbamoyl)picolinate], for which the “AUC0-last hour (area under the curve)” value is reported as “A (A = 0-1,000 ng/mL)”.

On to `C=Cc1cc(C(=O)Nc2ccc(C(=N)NC(=O)OC[C@H]3OC[C@H](O)[C@@H]3O)cc2)c(-c2ccc(C(=O)NCC3CC3)nc2C(=O)OC(C)OC(=O)C(C)C)cc1OC` (stereo partly drawn) [Compound 98e, 1-(isobutyryloxy)ethyl 6-((cyclopropylmethyl)carbamoyl)-3-(2-((4-(N-((((2R,3S,4S)-3,4-dihydroxytetrahydrofuran-2-yl)methoxy)carbonyl)carbamimidoyl)phenyl)carbamoyl)-5-methoxy-4-vinylphenyl)picolinate], for which the “AUC0-last hour (area under the curve)” value was “A (A = 0-1,000 ng/mL)”.

On to `C=Cc1cc(C(=O)Nc2ccc(C(=N)NC(=O)OC[C@H]3NC[C@H](O)[C@@H]3O)cc2)c(-c2ccc(C(=O)NCC3CC3)nc2C(=O)OC(C)OC(=O)OC(C)C)cc1OC` (stereo partly drawn) [Compound 99e, 1-((isopropoxycarbonyl)oxy)ethyl 6-((cyclopropylmethyl)carbamoyl)-3-(2-((4-(N-((((2R,3R,4S)-3,4-dihydroxypyrrolidin-2-yl)methoxy)carbonyl)carbamimidoyl)phenyl)carbamoyl)-5-methoxy-4-vinylphenyl)picolinate], for which the “AUC0-last hour (area under the curve)” value is on record as “A (A = 0-1,000 ng/mL)”.

For the origin of these results see US20210198204A1, “PRODRUGS OF KALLIKREIN INHIBITORS” (BioCryst Pharmaceuticals, Inc., priority 2016, published 2021).
